Source: PMC6348446 (Journal of Medicinal Chemistry, 2018)
Like-named read-outs stand apart in the source and are kept apart here.

Experiments:
[1] = molecular target: T1, BRD9 (Homo sapiens, UniProt Q9H8M2); test: Western blot of BRD9 levels in HeLa cells after compound treatment; type: cell-based; settings: 1 μM compound; for BRD9 degradation: HeLa cells; for remaining activity at 1 µM: Table 2, % of total protein remaining relative to 0.1% DMSO vehicle, HeLa cell lysates
T1 construct: Western blot analysis of BRD9 and BRD7 levels after treatment of HeLa cells; endogenous in cells; host or cells: HeLa
T1 sequence (Q9H8M2 1-597): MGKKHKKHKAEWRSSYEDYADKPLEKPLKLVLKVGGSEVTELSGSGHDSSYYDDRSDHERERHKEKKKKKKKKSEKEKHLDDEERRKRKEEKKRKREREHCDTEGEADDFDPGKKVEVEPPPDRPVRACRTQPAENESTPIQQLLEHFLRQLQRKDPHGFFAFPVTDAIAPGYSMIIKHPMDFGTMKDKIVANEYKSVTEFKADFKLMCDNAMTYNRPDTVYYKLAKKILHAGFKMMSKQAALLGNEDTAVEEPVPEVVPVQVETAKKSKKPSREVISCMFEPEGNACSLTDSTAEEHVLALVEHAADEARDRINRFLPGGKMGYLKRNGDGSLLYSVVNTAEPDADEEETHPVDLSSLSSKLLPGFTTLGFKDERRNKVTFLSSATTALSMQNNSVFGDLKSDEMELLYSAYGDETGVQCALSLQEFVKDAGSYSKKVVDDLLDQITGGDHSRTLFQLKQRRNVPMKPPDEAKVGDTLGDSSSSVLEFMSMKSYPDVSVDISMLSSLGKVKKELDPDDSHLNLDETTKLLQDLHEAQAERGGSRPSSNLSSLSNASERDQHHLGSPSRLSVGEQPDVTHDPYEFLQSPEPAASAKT

[2] = molecular target: T2, BRD7 (Homo sapiens, UniProt Q9NPI1); test: Western blot of BRD7 levels in HeLa cells after compound treatment; type: cell-based; settings: 1 μM compound; for BRD7 degradation: HeLa cells; for remaining activity at 1 µM: Table 2, % of total protein remaining relative to 0.1% DMSO vehicle, HeLa cell lysates
T2 construct: Western blot analysis of BRD9 and BRD7 levels after treatment of HeLa cells; endogenous in cells; host or cells: HeLa
T2 sequence (Q9NPI1 1-651): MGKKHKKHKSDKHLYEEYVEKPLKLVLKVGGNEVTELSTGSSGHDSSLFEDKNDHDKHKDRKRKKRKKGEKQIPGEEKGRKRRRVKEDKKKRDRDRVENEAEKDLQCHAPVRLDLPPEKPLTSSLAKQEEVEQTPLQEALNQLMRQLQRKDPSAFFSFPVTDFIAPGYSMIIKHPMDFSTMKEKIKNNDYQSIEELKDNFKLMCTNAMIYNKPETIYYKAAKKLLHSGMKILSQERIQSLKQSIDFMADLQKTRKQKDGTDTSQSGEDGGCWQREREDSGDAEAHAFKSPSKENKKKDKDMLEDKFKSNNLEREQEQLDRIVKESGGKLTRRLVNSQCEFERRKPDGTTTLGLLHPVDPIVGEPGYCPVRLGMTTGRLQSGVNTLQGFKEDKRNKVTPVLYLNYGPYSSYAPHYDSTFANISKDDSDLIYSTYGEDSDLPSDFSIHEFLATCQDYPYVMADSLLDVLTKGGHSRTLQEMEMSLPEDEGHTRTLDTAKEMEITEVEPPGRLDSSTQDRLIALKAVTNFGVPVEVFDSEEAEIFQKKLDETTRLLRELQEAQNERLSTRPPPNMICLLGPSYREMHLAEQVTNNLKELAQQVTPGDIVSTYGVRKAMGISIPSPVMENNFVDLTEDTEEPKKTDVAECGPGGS
Method: HeLa and Hek293 cells were seeded at either 0.3 × 10^6 or 0.5 × 10^6 cells per well in 6-well plate in 2 mL of medium. At 80% confluency, cells were treated with compounds at the desired concentration, with final DMSO concentration of 0.1% v/v. Cells were incubated at 37 °C and 5% of CO2 for the desired time before harvesting. For protein extraction from adherent cells, cells were washed twice with DPBS (Gibco) and lysed with RIPA buffer (Sigma-Aldrich), supplemented with cOmplete Mini EDTA-free protease inhibitor cocktail (Roche). Insoluble material was removed by centrifugation at 14 000 rpm for 15 min at 4 °C. Supernatant was collected and protein concentration was quantified by Bradford assay (Thermo Scientific no. 23200, mean of two replicates). For RI-1 cells, (1–1.5) × 10^6 cells/mL were seeded in 6-well plate in 2 mL of medium. The day after, cells were treated with compounds at the desired concentration, with final DMSO concentration of 0.1% v/v. Before harvesting, cells were incubated at 37 °C and 5% CO2 for the desired time. Cells were washed twice with DPBS (Gibco) and lysed with RIPA buffer (Sigma-Aldrich), supplemented with cOmplete Mini EDTA-free protease inhibitor cocktail (Roche). Lysates were sonicated (10 s) and centrifuged at 14 000 rpm for 20 min at 4 °C. Supernatant was collected, and protein concentration was quantified by Bradford assay (mean of two replicates). For EOL-1 and A-204 cell line, 20 000 cells were seeded in 300 μL per well in a 24-well plate and incubated at 37 °C overnight. Compounds were added from DMSO stock solution using a digital dispenser D300 (Tecan), normalizing for added DMSO, and cells were incubated at 37 °C for 18 h. Medium was removed, and cells were washed with PBS and lysed in 80 μL of lysis buffer (1% Triton, 350 mM KCl, 10 mM Tris, pH 7,4, phosphatase-protease inhibitor cocktail (Thermo Scientific no. 1861281), 10 mM DTT, Benzonase 0.5 μL/ml (Novagen no. 70746 10KU, 25 U/μL)) for 30 min on ice before insoluble debris was pelleted by centrifugation.
Proteins were resolved by SDS–PAGE on NuPage 4–12% Bis-Tris Midi Gel (Invitrogen) and transferred to Amersham Protran 0.45 NC nitrocellulose membrane (GE Healthcare) using wet transfer. The membrane was blocked with 5% w/v milk in Tris-buffered saline (TBS) with 0.1% w/v Tween-20. The following primary antibodies at the given concentration were used: anti β-actin (Cell Signaling Technology, 4970S, 13E5) 1:2000, anti-Brd9 (Bethyl A303-781A) 1:1000, anti-Brd7 (Bethyl A302-304A) 1:1000, VHL rabbit Ab (Cell Signaling Technology, no. 68547S) 1:1000, anti-CRBN (Novus Bio, NBP 1-9-1810) 1:1000, anti-actin hFAB rhodamine antibody, Bio-Rad, no. 12004164. Following incubation with horseradish peroxidase-conjugated secondary antibody (Cell Signaling Technology) or IRDye secondary antibody (Licor), bands were developed using Amersham ECL Prime Western blotting detection kit on Amersham Hyperfilm ECL film (Amersham) or ChemiDoc imaging system (Bio-Rad). ImageJ software was used for band quantification, and the last was reported as relative amount as ratio of each protein band relative to the lane’s loading control. Then the values obtained were normalized to 0.1% DMSO vehicle control. Alternatively, protein levels were determined on a WES capillary electrophoresis instrument (Proteinsimple) using a BRD9 antibody (Bethyl A303-781A) and a GAPDH antibody (Abcam no. ab9485) for normalization. DC50 and half-lives were determined by assuming a linear model between the two data points across 50% protein level mark.

| BRD9 degradation ([1]; 4 h) | BRD7 degradation ([2]; 4 h) | remaining activity at 1 µM ([1]; 4 h, read-out: BRD9 4 h (%)) | remaining activity at 1 µM ([1]; 16 h, read-out: BRD9 16 h (%)) | remaining activity at 1 µM ([2]; 4 h, read-out: BRD7 4 h (%)) | remaining activity at 1 µM ([2]; 16 h, read-out: BRD7 16 h (%)) | BRD9 degradation ([1]; 16 h) | BRD7 degradation ([2]; 16 h) | Structure (SMILES) |
| --- | --- | --- | --- | --- | --- | --- | --- | --- |
| strong degradation | no BRD7 degradation | – | – | – | – | – | – | COc1cc(-c2cn(C)c(=O)c3cnccc23)cc(OC)c1CN1CCN(CCOCCOCC(=O)NCCNc2cccc3c2C(=O)N(C2CCC(=O)NC2=O)C3=O)CC1 (stereo not drawn) [Compound 7, 2-(2-(2-(4-(2,6-Dimethoxy-4-(2-methyl-1-oxo-1,2-dihydro-2,7-naphthyridin-4-yl)benzyl)piperazin-1-yl)ethoxy)ethoxy)-N-(2-((2-(2,6-dioxopiperidin-3-yl)-1,3-dioxoisoindolin-4-yl)amino)ethyl)acetamide] |
| strong degradation | no BRD7 degradation | – | – | – | – | – | – | COc1cc(-c2cn(C)c(=O)c3cnccc23)cc(OC)c1CN1CCN(CCOCCOCCOCCOCC(=O)NCCNc2cccc3c2C(=O)N(C2CCC(=O)NC2=O)C3=O)CC1 (stereo not drawn) [Compound 8, 14-(4-(2,6-Dimethoxy-4-(2-methyl-1-oxo-1,2-dihydro-2,7-naphthyridin-4-yl)benzyl)piperazin-1-yl)-N-(2-((2-(2,6-dioxopiperidin-3-yl)-1,3-dioxoisoindolin-4-yl)amino)ethyl)-3,6,9,12-tetraoxatetradecanamide] |
| – | – | 74% | 73% | 95% | 113% | – | – | COc1cc(-c2cn(C)c(=O)c3cnccc23)cc(OC)c1CN1CCN(C(=O)COCCOCCOCC(=O)N[C@H](C(=O)N2C[C@H](O)C[C@H]2C(=O)NCc2ccc(-c3scnc3C)cc2)C(C)(C)C)CC1 [Compound 25] |
| at most 20% | at most 20% | 99% | – | 102% | 119% | ≤ 30% | ≤ 30% | COc1cc(-c2cn(C)c(=O)c3cnccc23)cc(OC)c1CN1CCN(CCOCCOCCOCCOCC(=O)N[C@H](C(=O)N2C[C@H](O)C[C@H]2C(=O)NCc2ccc(-c3scnc3C)cc2)C(C)(C)C)CC1 [Compound 6, (2S,4R)-1-((S)-2-(tert-Butyl)-17-(4-(2,6-dimethoxy-4-(2-methyl-1-oxo-1,2-dihydro-2,7-naphthyridin-4-yl)benzyl)piperazin-1-yl)-4-oxo-6,9,12,15-tetraoxa-3-azaheptadecanoyl)-4-hydroxy-N-(4-(4-methylthiazol-5-yl)benzyl)pyrrolidine-2-carboxamide] |
